Source: the kinase profiling compilation of Christmann-Franck et al. (2016)

Key:
Test in all cases: KINOMEscan competition binding
ADCK3 (human) = ADCK3 (human) (UniProt Q8NI60); conditions: compound 1.0 µM
AKT3 (human) = AKT3 (human) (UniProt Q9Y243); conditions: compound 1.0 µM
BMPR1B (human) = BMPR1B (human) (UniProt O00238); conditions: compound 1.0 µM
BRAF (human) = BRAF (human) (UniProt P15056); conditions: compound 1.0 µM
CAMK1G (human) = CAMK1G (human) (UniProt Q96NX5); conditions: compound 1.0 µM
CAMK2B (human) = CAMK2B (human) (UniProt Q13554); conditions: compound 1.0 µM
CAMK4 (human) = CAMK4 (human) (UniProt Q16566); conditions: compound 1.0 µM
CAMKK2 (human) = CAMKK2 (human) (UniProt Q96RR4); conditions: compound 1.0 µM
CDC42BPA (human) = CDC42BPA (human) (UniProt Q5VT25); conditions: compound 1.0 µM
CDK13 (human) = CDK13 (human) (UniProt Q14004); conditions: compound 1.0 µM
CHEK2 (human) = CHEK2 (human) (UniProt O96017); conditions: compound 1.0 µM
[1] = system: EGFR (human), P00533 [G719C]; conditions: compound 1.0 µM
EPHB4 (human) = EPHB4 (human) (UniProt P54760); conditions: compound 1.0 µM
FGFR2 (human) = FGFR2 (human) (UniProt P21802); conditions: compound 1.0 µM
LIMK1 (human) = LIMK1 (human) (UniProt P53667); conditions: compound 1.0 µM
MAP3K12 (human) = MAP3K12 (human) (UniProt Q12852); conditions: compound 1.0 µM
MAP3K4 (human) = MAP3K4 (human) (UniProt Q9Y6R4); conditions: compound 1.0 µM
MAPK12 (human) = MAPK12 (human) (UniProt P53778); conditions: compound 1.0 µM
MAPK8 (human) = MAPK8 (human) (UniProt P45983); conditions: compound 1.0 µM
MARK1 (human) = MARK1 (human) (UniProt Q9P0L2); conditions: compound 1.0 µM
MARK3 (human) = MARK3 (human) (UniProt P27448); conditions: compound 1.0 µM
MLTK (human) = MLTK (human) (UniProt Q9NYL2); conditions: compound 1.0 µM
NIM1 (human) = NIM1 (human) (UniProt Q8IY84); conditions: compound 1.0 µM
NTRK2 (human) = NTRK2 (human) (UniProt Q16620); conditions: compound 1.0 µM
PHKG2 (human) = PHKG2 (human) (UniProt P15735); conditions: compound 1.0 µM
PIK3C2B (human) = PIK3C2B (human) (UniProt O00750); conditions: compound 1.0 µM
[2] = system: PIK3CA (human), P42336 [E542K]; conditions: compound 1.0 µM
[3] = system: PIK3CA (human), P42336 [I800L]; conditions: compound 1.0 µM
PLK1 (human) = PLK1 (human) (UniProt P53350); conditions: compound 1.0 µM
PRKACB (human) = PRKACB (human) (UniProt P22694); conditions: compound 1.0 µM
PRKCE (human) = PRKCE (human) (UniProt Q02156); conditions: compound 1.0 µM
PRKCH (human) = PRKCH (human) (UniProt P24723); conditions: compound 1.0 µM
RAF1 (human) = RAF1 (human) (UniProt P04049); conditions: compound 1.0 µM
[4] = system: RET (human), P07949 [V804L]; conditions: compound 1.0 µM
RIOK2 (human) = RIOK2 (human) (UniProt Q9BVS4); conditions: for kinase still bound, per cent of control: compound 1.0 µM
RIOK3 (human) = RIOK3 (human) (UniProt O14730); conditions: compound 1.0 µM
SLK (human) = SLK (human) (UniProt Q9H2G2); conditions: compound 1.0 µM
SRPK2 (human) = SRPK2 (human) (UniProt P78362); conditions: compound 1.0 µM
STK10 (human) = STK10 (human) (UniProt O94804); conditions: compound 1.0 µM
STK11 (human) = STK11 (human) (UniProt Q15831); conditions: compound 1.0 µM
STK3 (human) = STK3 (human) (UniProt Q13188); conditions: compound 1.0 µM
TAOK2 (human) = TAOK2 (human) (UniProt Q9UL54); conditions: compound 1.0 µM
TBK1 (human) = TBK1 (human) (UniProt Q9UHD2); conditions: compound 1.0 µM

RIOK2 (human), sequence (Q9BVS4 whole entry, looked up): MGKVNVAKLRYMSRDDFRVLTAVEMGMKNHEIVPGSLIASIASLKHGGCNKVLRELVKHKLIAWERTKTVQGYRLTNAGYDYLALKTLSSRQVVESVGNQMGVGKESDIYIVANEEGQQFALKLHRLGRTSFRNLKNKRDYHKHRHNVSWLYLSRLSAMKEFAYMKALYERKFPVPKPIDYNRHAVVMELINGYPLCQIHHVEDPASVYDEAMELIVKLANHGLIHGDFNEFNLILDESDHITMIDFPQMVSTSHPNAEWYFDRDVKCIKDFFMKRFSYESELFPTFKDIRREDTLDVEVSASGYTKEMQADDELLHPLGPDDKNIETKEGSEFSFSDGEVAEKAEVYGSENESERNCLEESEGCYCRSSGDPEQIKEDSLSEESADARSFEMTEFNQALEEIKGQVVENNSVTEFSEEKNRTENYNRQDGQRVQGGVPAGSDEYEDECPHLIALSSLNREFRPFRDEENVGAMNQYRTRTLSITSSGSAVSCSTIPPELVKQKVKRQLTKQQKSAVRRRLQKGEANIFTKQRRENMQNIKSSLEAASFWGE
CAMK4 (human), sequence (Q16566 whole entry, looked up): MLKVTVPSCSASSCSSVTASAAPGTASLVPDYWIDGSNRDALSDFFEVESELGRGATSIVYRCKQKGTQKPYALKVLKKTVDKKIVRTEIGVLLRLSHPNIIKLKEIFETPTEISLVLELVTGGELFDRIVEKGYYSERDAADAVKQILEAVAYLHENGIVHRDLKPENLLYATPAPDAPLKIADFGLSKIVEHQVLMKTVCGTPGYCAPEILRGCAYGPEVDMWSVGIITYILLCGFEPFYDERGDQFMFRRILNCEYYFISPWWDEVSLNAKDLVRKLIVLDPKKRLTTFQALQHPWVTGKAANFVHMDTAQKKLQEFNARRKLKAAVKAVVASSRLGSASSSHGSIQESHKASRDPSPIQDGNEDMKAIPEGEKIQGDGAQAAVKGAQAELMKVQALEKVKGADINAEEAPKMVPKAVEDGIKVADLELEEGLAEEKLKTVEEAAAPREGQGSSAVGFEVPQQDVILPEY
NTRK2 (human), sequence (Q16620 whole entry, looked up): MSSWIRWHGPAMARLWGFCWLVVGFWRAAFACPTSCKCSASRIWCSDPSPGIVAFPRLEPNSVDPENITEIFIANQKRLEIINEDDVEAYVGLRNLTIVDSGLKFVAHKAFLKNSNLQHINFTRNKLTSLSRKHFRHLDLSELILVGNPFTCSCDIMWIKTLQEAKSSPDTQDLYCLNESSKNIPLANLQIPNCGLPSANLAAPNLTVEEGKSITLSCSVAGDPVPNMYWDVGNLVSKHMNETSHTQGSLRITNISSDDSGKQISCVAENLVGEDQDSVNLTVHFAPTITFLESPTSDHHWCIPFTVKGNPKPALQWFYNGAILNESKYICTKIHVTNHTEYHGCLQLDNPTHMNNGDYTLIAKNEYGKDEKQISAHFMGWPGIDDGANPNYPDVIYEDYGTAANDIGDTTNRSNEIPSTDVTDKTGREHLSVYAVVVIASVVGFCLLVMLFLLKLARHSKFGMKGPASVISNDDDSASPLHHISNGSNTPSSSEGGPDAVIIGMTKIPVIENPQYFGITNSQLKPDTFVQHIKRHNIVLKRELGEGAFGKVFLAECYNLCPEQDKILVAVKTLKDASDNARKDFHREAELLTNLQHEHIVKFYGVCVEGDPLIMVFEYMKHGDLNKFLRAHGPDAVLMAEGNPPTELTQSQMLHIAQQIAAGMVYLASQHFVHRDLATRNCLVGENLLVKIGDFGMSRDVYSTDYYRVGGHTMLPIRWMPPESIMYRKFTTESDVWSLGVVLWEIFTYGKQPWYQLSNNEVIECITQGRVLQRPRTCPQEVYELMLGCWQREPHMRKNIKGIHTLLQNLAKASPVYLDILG
RAF1 (human), sequence (P04049 whole entry, looked up): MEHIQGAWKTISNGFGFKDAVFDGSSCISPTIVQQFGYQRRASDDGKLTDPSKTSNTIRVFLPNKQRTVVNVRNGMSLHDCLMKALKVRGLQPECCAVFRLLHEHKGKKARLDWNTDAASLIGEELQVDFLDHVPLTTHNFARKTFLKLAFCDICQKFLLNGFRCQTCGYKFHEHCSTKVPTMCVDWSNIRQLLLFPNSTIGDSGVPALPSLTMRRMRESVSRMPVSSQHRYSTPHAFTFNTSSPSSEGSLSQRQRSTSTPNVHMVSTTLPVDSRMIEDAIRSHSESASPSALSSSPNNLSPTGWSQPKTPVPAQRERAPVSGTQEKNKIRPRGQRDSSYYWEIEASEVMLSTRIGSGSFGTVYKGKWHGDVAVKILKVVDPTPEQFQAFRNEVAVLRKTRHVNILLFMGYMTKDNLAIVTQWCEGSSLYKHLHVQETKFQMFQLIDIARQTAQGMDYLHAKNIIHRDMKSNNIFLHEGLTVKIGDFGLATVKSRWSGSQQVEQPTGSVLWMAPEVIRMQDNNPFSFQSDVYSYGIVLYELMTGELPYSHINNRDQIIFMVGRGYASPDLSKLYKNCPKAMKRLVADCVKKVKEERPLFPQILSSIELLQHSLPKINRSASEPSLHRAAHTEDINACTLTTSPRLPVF
PIK3CA (human), P42336 [E542K], sequence (P42336 whole entry E542K, looked up): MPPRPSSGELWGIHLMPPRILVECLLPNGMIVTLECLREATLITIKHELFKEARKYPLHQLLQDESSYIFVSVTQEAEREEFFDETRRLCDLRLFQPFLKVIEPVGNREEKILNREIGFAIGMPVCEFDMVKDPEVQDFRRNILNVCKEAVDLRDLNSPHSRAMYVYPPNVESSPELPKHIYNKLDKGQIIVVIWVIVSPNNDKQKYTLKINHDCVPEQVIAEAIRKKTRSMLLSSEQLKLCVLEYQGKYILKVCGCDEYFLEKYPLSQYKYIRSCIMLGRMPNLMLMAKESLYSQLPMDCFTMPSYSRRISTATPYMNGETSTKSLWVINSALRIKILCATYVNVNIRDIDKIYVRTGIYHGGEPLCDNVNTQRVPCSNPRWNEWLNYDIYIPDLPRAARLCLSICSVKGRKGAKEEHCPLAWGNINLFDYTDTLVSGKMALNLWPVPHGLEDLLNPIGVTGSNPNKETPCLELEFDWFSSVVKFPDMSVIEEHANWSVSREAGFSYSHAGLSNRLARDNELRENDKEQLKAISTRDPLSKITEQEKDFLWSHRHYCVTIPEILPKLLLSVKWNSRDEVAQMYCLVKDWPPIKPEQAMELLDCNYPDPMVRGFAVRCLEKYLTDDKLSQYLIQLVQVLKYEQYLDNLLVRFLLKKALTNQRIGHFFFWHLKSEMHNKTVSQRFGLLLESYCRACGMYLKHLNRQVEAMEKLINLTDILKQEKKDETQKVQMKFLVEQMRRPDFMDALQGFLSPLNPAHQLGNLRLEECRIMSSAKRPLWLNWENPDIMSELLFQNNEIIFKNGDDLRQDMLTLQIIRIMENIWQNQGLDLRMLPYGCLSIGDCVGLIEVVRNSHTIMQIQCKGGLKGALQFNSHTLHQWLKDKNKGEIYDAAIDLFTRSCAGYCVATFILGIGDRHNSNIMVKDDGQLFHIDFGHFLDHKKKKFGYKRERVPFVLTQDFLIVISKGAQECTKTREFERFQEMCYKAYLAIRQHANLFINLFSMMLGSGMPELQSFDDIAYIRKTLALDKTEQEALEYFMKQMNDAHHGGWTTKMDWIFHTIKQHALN
STK3 (human), sequence (Q13188 whole entry, looked up): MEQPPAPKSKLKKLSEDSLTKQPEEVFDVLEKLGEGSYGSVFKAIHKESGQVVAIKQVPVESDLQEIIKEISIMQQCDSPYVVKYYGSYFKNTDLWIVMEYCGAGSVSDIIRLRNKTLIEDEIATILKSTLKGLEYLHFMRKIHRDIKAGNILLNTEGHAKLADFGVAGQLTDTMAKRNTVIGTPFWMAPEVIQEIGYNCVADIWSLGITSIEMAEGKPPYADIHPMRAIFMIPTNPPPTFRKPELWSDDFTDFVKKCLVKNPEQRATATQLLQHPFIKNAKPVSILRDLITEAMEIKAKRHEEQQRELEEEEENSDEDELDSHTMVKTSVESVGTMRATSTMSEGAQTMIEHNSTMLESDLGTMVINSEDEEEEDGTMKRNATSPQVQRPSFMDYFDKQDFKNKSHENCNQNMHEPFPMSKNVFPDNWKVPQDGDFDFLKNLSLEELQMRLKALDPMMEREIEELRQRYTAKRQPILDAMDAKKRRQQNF
CAMK2B (human), sequence (Q13554 whole entry, looked up): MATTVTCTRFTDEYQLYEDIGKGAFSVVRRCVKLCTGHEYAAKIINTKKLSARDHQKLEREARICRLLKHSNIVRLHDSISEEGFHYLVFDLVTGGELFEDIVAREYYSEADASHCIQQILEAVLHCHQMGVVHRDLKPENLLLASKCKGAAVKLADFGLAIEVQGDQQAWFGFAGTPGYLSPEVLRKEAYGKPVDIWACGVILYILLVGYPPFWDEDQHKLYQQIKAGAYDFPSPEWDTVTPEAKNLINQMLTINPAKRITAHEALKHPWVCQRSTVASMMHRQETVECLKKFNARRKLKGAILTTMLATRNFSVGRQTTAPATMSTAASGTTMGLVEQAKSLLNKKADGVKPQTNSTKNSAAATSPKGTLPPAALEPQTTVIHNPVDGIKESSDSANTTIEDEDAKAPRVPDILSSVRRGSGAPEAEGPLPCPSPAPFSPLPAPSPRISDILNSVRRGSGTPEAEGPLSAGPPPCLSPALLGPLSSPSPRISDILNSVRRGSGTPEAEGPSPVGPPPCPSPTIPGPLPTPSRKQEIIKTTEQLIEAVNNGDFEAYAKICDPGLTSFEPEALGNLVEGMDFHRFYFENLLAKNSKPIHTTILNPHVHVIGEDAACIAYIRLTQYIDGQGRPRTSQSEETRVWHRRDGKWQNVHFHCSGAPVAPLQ
PIK3CA (human), P42336 [I800L], sequence (P42336 whole entry I800L, looked up): as the sequence (P42336 whole entry E542K, looked up) above, with K542E, I800L counted along it

SMILES: CN(C)C/C=C/C(=O)Nc1cccc(C(=O)Nc2ccc(Nc3nccc(-c4c(-c5ccccc5)nn5ccccc45)n3)cc2)c1
- kinase still bound, per cent of control (ADCK3 (human)): 0%
- kinase still bound, per cent of control (AKT3 (human)): 80%
- kinase still bound, per cent of control (BMPR1B (human)): 47%
- kinase still bound, per cent of control (BRAF (human)): 43%
- kinase still bound, per cent of control (CAMK1G (human)): 94%
- kinase still bound, per cent of control (CAMK2B (human)): 100%
- kinase still bound, per cent of control (CAMK4 (human)): 100%
- kinase still bound, per cent of control (CAMKK2 (human)): 100%
- kinase still bound, per cent of control (CDC42BPA (human)): 13%
- kinase still bound, per cent of control (CDK13 (human)): 100%
- kinase still bound, per cent of control (CHEK2 (human)): 100%
- kinase still bound, per cent of control [1]: 0.55%
- kinase still bound, per cent of control (EPHB4 (human)): 43%
- kinase still bound, per cent of control (FGFR2 (human)): 49%
- kinase still bound, per cent of control (LIMK1 (human)): 100%
- kinase still bound, per cent of control (MAP3K12 (human)): 84%
- kinase still bound, per cent of control (MAP3K4 (human)): 80%
- kinase still bound, per cent of control (MAPK12 (human)): 94%
- kinase still bound, per cent of control (MAPK8 (human)): 0%
- kinase still bound, per cent of control (MARK1 (human)): 100%
- kinase still bound, per cent of control (MARK3 (human)): 75%
- kinase still bound, per cent of control (MLTK (human)): 11%
- kinase still bound, per cent of control (NIM1 (human)): 100%
- kinase still bound, per cent of control (NTRK2 (human)): 14%
- kinase still bound, per cent of control (PHKG2 (human)): 100%
- kinase still bound, per cent of control (PIK3C2B (human)): 100%
- kinase still bound, per cent of control [2]: 91%
- kinase still bound, per cent of control [3]: 77%
- kinase still bound, per cent of control (PLK1 (human)): 100%
- kinase still bound, per cent of control (PRKACB (human)): 83%
- kinase still bound, per cent of control (PRKCE (human)): 93%
- kinase still bound, per cent of control (PRKCH (human)): 100%
- kinase still bound, per cent of control (RAF1 (human)): 83%
- kinase still bound, per cent of control [4]: 89%
- kinase still bound, per cent of control (RIOK2 (human)): 27%
- kinase still bound, per cent of control (RIOK3 (human)): 97%
- kinase still bound, per cent of control (SLK (human)): 18%
- kinase still bound, per cent of control (SRPK2 (human)): 85%
- kinase still bound, per cent of control (STK10 (human)): 23%
- kinase still bound, per cent of control (STK11 (human)): 93%
- kinase still bound, per cent of control (STK3 (human)): 99%
- kinase still bound, per cent of control (TAOK2 (human)): 31%
- kinase still bound, per cent of control (TBK1 (human)): 100%

SMILES: Cc1cc(NC(=O)c2cccc(NC(=O)/C=C/CN(C)C)c2)ccc1Nc1nccc(-c2cccnc2)n1
- kinase still bound, per cent of control (ADCK3 (human)): 100%
- kinase still bound, per cent of control (AKT3 (human)): 100%
- kinase still bound, per cent of control (BMPR1B (human)): 92%
- kinase still bound, per cent of control (BRAF (human)): 90%
- kinase still bound, per cent of control (CAMK1G (human)): 100%
- kinase still bound, per cent of control (CAMK2B (human)): 100%
- kinase still bound, per cent of control (CAMK4 (human)): 100%
- kinase still bound, per cent of control (CAMKK2 (human)): 93%
- kinase still bound, per cent of control (CDC42BPA (human)): 100%
- kinase still bound, per cent of control (CDK13 (human)): 100%
- kinase still bound, per cent of control (CHEK2 (human)): 95%
- kinase still bound, per cent of control [1]: 81%
- kinase still bound, per cent of control (EPHB4 (human)): 100%
- kinase still bound, per cent of control (FGFR2 (human)): 79%
- kinase still bound, per cent of control (LIMK1 (human)): 74%
- kinase still bound, per cent of control (MAP3K12 (human)): 99%
- kinase still bound, per cent of control (MAP3K4 (human)): 100%
- kinase still bound, per cent of control (MAPK12 (human)): 100%
- kinase still bound, per cent of control (MAPK8 (human)): 0%
- kinase still bound, per cent of control (MARK1 (human)): 100%
- kinase still bound, per cent of control (MARK3 (human)): 100%
- kinase still bound, per cent of control (MLTK (human)): 100%
- kinase still bound, per cent of control (NIM1 (human)): 100%
- kinase still bound, per cent of control (NTRK2 (human)): 96%
- kinase still bound, per cent of control (PHKG2 (human)): 89%
- kinase still bound, per cent of control (PIK3C2B (human)): 100%
- kinase still bound, per cent of control [2]: 100%
- kinase still bound, per cent of control [3]: 88%
- kinase still bound, per cent of control (PLK1 (human)): 100%
- kinase still bound, per cent of control (PRKACB (human)): 76%
- kinase still bound, per cent of control (PRKCE (human)): 81%
- kinase still bound, per cent of control (PRKCH (human)): 94%
- kinase still bound, per cent of control (RAF1 (human)): 93%
- kinase still bound, per cent of control [4]: 100%
- Kd (RIOK2 (human)): 0.12 µM
- kinase still bound, per cent of control (RIOK2 (human)): 10%
- kinase still bound, per cent of control (RIOK3 (human)): 72%
- kinase still bound, per cent of control (SLK (human)): 100%
- kinase still bound, per cent of control (SRPK2 (human)): 100%
- kinase still bound, per cent of control (STK10 (human)): 100%
- kinase still bound, per cent of control (STK11 (human)): 100%
- kinase still bound, per cent of control (STK3 (human)): 48%
- kinase still bound, per cent of control (TAOK2 (human)): 73%
- kinase still bound, per cent of control (TBK1 (human)): 100%
